# Laboratory results from US11952364B2, “TRK inhibitors useful as anticancer drugs” (TYLIGAND BIOSCIENCE (SHANGHAI) LIMITED, priority 2018, dated 2024).
# Test system: Ba/F3 ETV6-NTRK3 cells
# Experiment: Proliferation of Ba/F3 ETV6-NTRK3 cells (CellTiter-Glo)
# Type: cell-based
# Conditions: Mus musculus, BaF3; Table 3; 72 hours
# Description: Ba/F3 ETV6-NTRK3 is a stable transgenic cell line constructed by KYinno Biotechnology Co., Ltd. on mouse primary B cell Ba/F3 wherein NTRK3 is highly expressed and fused with ETV6 to form ETV6-NTRK3. • [Test method]: Promega's CellTiter-Glo® Luminescent Cell Viability Assay kit was used to evaluate the inhibitory activity of the compounds on the proliferation of Ba/F3 ETV6-NTRK3 cells. • [Instrument]: Spectramax M3 multifunctional microplate reader from Molecular Devices. • [Test materials]: Ba/F3 ETV6-NTRK3 cell line (constructed by KYinno Biotechnology Co., Ltd. (Beijing)), 96-well transparent flat-bottomed black-walled cell culture plate (Corning, cat #3603), RPMI-1640 media (GE, cat #SH30027.01), fetal bovine serum FBS (Thermo Fisher, cat #10099-141), CellTiter-Glo® Luminescent Cell Viability Assay kit (Promega, cat #G7572), PBS (Solarbio, cat #P1020), DMSO (Sigma, cat #D2650). • [Experimental procedure]: When resuscitating Ba/F3 ETV6-NTRK3 cells, the freezing tube was quickly shaken in a 37° C. water bath to melt within 1 minute. The thawed cell suspension was mixed uniformly with RPMI1640 medium containing 10% FBS, centrifuged at 1000 rpm for 5 minutes, and the supernatant discarded. 5 mL of complete medium (RPMI1640 medium with 10% FBS) was taken to resuspend the cell pellets, charged into a cell culture flask with a bottom area of 25 cm^2, and incubated in a cell incubator at 37° C., 95% humidity and 5% CO2. Cells were allowed to passage when the number of cells reached about 10^6 cells/mL. For cell passage, the old cell suspension was directly pipetted evenly, 1/5 of the cell suspension was kept, 4 mL of new complete medium was added, after pipetting evenly, the cell flask was placed in the cell incubator for further culturing. Cell plating was performed when the number of cells reached about 10^6 cells/mL again. For cell plating, 1/5 of the cell suspension was kept for further culturing as in the cell passage method, and the remaining 4/5 of the cell suspension was placed in a 15 mL centrifuge tube, detected for cell viability by Trypan blue exclusion method to ensure that cell viability was above 90%. A cell suspension with a density of 5.56×10^4 viable cells/mL was prepared with complete medium, and 90 μL of such cell suspension was added to a 96-well cell culture plate to obtain the cell density of 5000 viable cells/mL in the cell culture plate. A control group containing no cells, no compound and only complete medium (i.e. culture medium control) and a control group containing no compound but containing cells (i.e. cell control) were set. The cell plate was placed in a cell incubator overnight. The 10 mM compound stock solution in DMSO was first serially diluted with DMSO at a dilution factor of 3.16 times, to obtain 9 concentrations, and the 10th concentration was set as DMSO control without compound. Then, PBS was used to dilute the DMSO solutions of compounds of different concentrations, at a dilution factor of 100 times, so that the DMSO concentration in the compound solution of each concentration was 1%. Finally, 10 μL of each of the above solutions was added to the corresponding cell culture plate, so that the initial compound concentration was 10 μM, with the remaining concentrations being successively diluted at a dilution factor of 3.16 times, and the DMSO content in the cell culture plate was 0.1%. The cell plate was placed in a cell incubator and cultured for 72 hours. For endpoint detection, the CellTiter-Glo reagent was melted, and the cell plate was moved to room temperature to equilibrate for 30 minutes, added with 100 μL of CellTiter-Glo for each well, and shaken on an orbital shaker for 5 minutes to fully lyse the cells. The plate was kept at room temperature for 20 minutes to stabilize the luminescence signal, and the luminescence value of each well was scanned with a multi-functional microplate reader at full wavelength. • [Test samples]
row,SMILES,IC50 [µM]
1,"Cn1ncc2cc(Oc3ccc(NC(=O)c4ccc(C(F)(F)F)n(-c5ccc(F)cc5)c4=O)cc3F)c(-c3cn[nH]c3)cc21 [Example 1, N-(3-fluoro-4-(1-methyl-6-(1H-pyrazol-4-yl)-1H-indazol-5-yloxy)phenyl)-1-(4-fluorophenyl)-6-trifluoromethyl-2-oxo-1,2-dihydmpyridine-3-carboxamide monomethanesulfonate]",0.435
2,"Cc1ccc(C(=O)Nc2ccc(Oc3cc4cnn(C)c4cc3-c3cn[nH]c3)c(F)c2)c(=O)n1-c1ccc(F)cc1 [Merestinib, reference compound]",0.684
3,"Cc1ccc(C(=O)Nc2ccc(Oc3cc4cnn(C(C)C)c4cc3-c3cn[nH]c3)c(F)c2)c(=O)n1-c1ccc(F)cc1 [Example 4, N-(3-fluoro-4-(1-isopropyl-6-(1H-pyrazol-4-yl)-1H-indazol-5-yloxy)phenyl)-1-(4-fluorophenyl)-6-methyl-2-oxo-1,2-dihydmpyridine-3-carboxamide]",0.762
4,"CCn1ncc2cc(Oc3ccc(NC(=O)c4ccc(C)n(-c5ccc(F)cc5)c4=O)cc3F)c(-c3cn[nH]c3)cc21 [Example 3, N-(3-fluoro-4-(1-ethyl-6-(1H-pyrazol-4-yl)-1H-indazol-5-yloxy)phenyl)-1-(4-fluorophenyl)-6-methyl-2-oxo-1,2-dihydmpyridine-3-carboxamide]",0.663

# These reach a lower IC50. Values come first.
row,IC50 [µM],SMILES
1,0.284,"CC(C)c1ccc(C(=O)Nc2ccc(Oc3cc4cnn(C)c4cc3-c3cn[nH]c3)c(F)c2)c(=O)n1-c1ccc(F)cc1 [Example 6, N-(3-fluoro-4-(1-methyl-6-(1H-pyrazol-4-yl)-1H-indazol-5-yloxy)phenyl)-1-(4-fluorophenyl)-6-isopropyl-2-oxo-1,2-dihydropyridine-3-carboxamide]"
2,0.005,"O=C(Nc1cnn2ccc(N3CCC[C@@H]3c3cc(F)ccc3F)nc12)N1CC[C@H](O)C1 [LOXO-101, Larotrectinib, reference compound]"
3,0.094,"Cn1ncc2cc(Oc3ccc(NC(=O)c4ccc(C5CC5)n(-c5ccc(F)cc5)c4=O)cc3F)c(-c3cn[nH]c3)cc21 [Example 2, N-(3-fluoro-4-(1-methyl-6-(1H-pyrazol-4-yl)-1H-indazol-5-yloxy)phenyl)-1-(4-fluorophenyl)-6-cyclopropyl-2-oxo-1,2-dihydmpyridine-3-carboxamide]"
4,0.06,"CCc1ccc(C(=O)Nc2ccc(Oc3cc4cnn(C)c4cc3-c3cn[nH]c3)c(F)c2)c(=O)n1-c1ccc(F)cc1 [Example 5, N-(3-fluoro-4-(1-methyl-6-(1H-pyrazol-4-yl)-1H-indazol-5-yloxy)phenyl)-1-(4-fluorophenyl)-6-ethyl-2-oxo-1,2-dihydropyridine-3-carboxamide]"
